In patent US11541068B2, “HMO compositions and methods for reducing autism spectrum disorder symptoms” (Glycom A/S, priority 2017, dated 2023):

Assays:
clostridia = conditions: children with regressive autism; 6-week oral course; cited from earlier work
faecal microbiota = assay: M-SHIME (M-TripleSHIME) in vitro gastrointestinal model: microbiota and bacterial metabolites; type: cell-based, human (healthy adult); conditions: proximal (PC) and distal (DC) colon reactor; means of three weekly samples
Excerpt: The impact of the HMOs on microbiota and bacterial metabolites was investigated in the M-SHIME® (M-TripleSHIME®) in vitro gastrointestinal model (Prodigest). The typical reactor setup of the M-TripleSHIME® consisted of a succession of four reactors simulating the different parts of the human gastrointestinal tract. The first two reactors were of the fill-and-draw principle to simulate different steps in food uptake and digestion, with peristaltic pumps adding a defined amount of SHIME feed (140 mL 3×/day) and pancreatic and bile liquid (60 ml 3×/day), respectively, to the stomach and small intestine compartment and emptying the respective reactors after specified intervals. The last two compartments were continuously stirred reactors with constant volume and pH control. […]
The M-TripleSHIME® was run in four stages: • 1. […] The baseline microbial community composition and activity in the different reactors was determined by analysis of samples and was used as a reference. • 3. […]
Sample of the liquids in each reactor were collected regularly (three times in a week, on day 1, day 3 and day 5) and were analysed for microbial metabolites and the composition of the resident microbial community. In particular, the bifidobacteria composition was analysed using ITS profiling.

SMILES: CN[C@H](CC(C)C)C(=O)N[C@H]1C(=O)N[C@@H](CC(N)=O)C(=O)N[C@H]2C(=O)N[C@H]3C(=O)N[C@H](C(=O)N[C@H](C(=O)O)c4cc(O)cc(O)c4-c4cc3ccc4O)[C@H](O)c3ccc(c(Cl)c3)Oc3cc2cc(c3O[C@@H]2O[C@H](CO)[C@@H](O)[C@H](O)[C@H]2O[C@H]2C[C@](C)(N)[C@H](O)[C@H](C)O2)Oc2ccc(cc2Cl)[C@H]1O [vancomycin]
- children with significant improvement in neurobehavioral symptoms (clostridia): eight of the ten children
- gastrointestinal symptoms (clostridia): improvement

SMILES: CC(=O)N[C@H]1[C@H](O[C@H]2[C@@H](O)[C@@H](CO)O[C@@H](O[C@H]3[C@H](O)[C@@H](O)C(O)O[C@@H]3CO)[C@@H]2O)O[C@H](CO)[C@@H](O[C@@H]2O[C@H](CO)[C@H](O)[C@H](O)[C@H]2O)[C@@H]1O (mixture of isomers) [LNnT, lacto-N-neotetraose]
- effect on branched SCFA and ammonia production, compared with 2′-FL (FIG. 1) (faecal microbiota): similar
